Test results as given in patent US9169241B2, “Quinolinyloxyphenylsulfonamides” (Max-Planck-Gesellschaft Zur Forderung der Wissenschaften …, priority 2009, dated 2015).
Where two headings read alike, the source gives them in different places.

Key:
Type in all cases: cell-based
Hs578T = assay: Wound healing migration assay; conditions: Homo sapiens, Hs-578T; HS578T cell line; Table Ib
Procedure, shortened: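 Cells seeded at 150000/24 well, grown to monolayer overnight, scratched with a pipette tip, then treated with compound at 12.5, 6.25 or 3.125 μM versus DMSO. Stopped by crystal violet fixation at 48-72 h once control wounds closed; IC50 taken as 50% wound size between t0 and t48 or t72.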

A172 = assay: Matrigel outgrowth assay/branching assay; conditions: Homo sapiens, A 172, Table Vb, read-out: Total branching inhibition in Matrigel A172
Procedure, shortened: (§1)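 Cells (5000/well) were seeded onto polymerized 3 mg/ml Matrigel with compound at 3.125, 1.56 or 0.78 μM, or DMSO. Imaging by inverted microscopy at 48, 72 and 96 h scored invasive branching. Only concentrations giving total branching inhibition counted as positive.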

SF126 = assay: Matrigel outgrowth assay/branching assay; conditions: Homo sapiens, SF-126, Table Vb, read-out: Total branching inhibition in Matrigel SF126
Procedure, shortened: as §1

U118 = assay: Matrigel outgrowth assay/branching assay; conditions: Table Vb, read-out: Total branching inhibition in Matrigel U118
Procedure, shortened: as §1

cells = assay: Boyden chamber migration assay (Table VI); conditions: Homo sapiens, Hs-578T, 16 h, Hs578T cells; 16 h migration
Procedure, shortened: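 20000 cells seeded in the upper compartment in 0% FCS plus 0.1% BSA and left 16 h to migrate through […] membrane toward 10% FCS medium below. Non-migrated cells swabbed off; cells on the filter underside fixed and counted.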

viable cells in culture = assay: Cell viability assay at 10 μM (CellTiter-Glo, Table VII); conditions: compound 10 μM, 72 h;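 further: graded A 0-20%; B 21-40%; C 41-60%; D over 60% viable cells relative to DMSO control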
Procedure, shortened: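 Viable cell number was measured with the CellTiter-Glo Luminescent Cell Viability Assay (Promega), following the manufacturer's protocol, which quantifies ATP as a marker of metabolically active cells. In 96-well plates, 1000 cells/well in 100 μl medium were exposed to compound at 10 μM, or to DMSO control, for 72 h. Values were calculated relative to DMSO-control ATP.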

[1] = Homo sapiens, HCT-116, HCT116 def, read-out: percentage (%) of viable cells HCT 116def
[2] = Homo sapiens, HCT-116, HCT116 wt, read-out: percentage (%) of viable cells HCT 116wt
[3] = Homo sapiens, HT-29, HT29, read-out: percentage (%) of viable cells HT29
[4] = Homo sapiens, NCI-H358, H358, read-out: percentage (%) of viable cells H358
[5] = Homo sapiens, NCI-H1650, H1650, read-out: percentage (%) of viable cells H1650
[6] = Homo sapiens, NCI-H1666, H1666, read-out: percentage (%) of viable cells H1666
[7] = Homo sapiens, NCI-H1975, H1975, read-out: percentage (%) of viable cells H1975
[8] = Homo sapiens, NCI-H1993, H1993, read-out: percentage (%) of viable cells H1993
[9] = Homo sapiens, A549, read-out: percentage (%) of viable cells A549
[10] = Homo sapiens, HCC827, read-out: percentage (%) of viable cells HCC827
[11] = Homo sapiens, SW480, read-out: percentage (%) of viable cells SW480
[12] = RKO, read-out: percentage (%) of viable cells RKO

Compound	IC50 (Hs578T) [µM]	IC100 (A172) [µM]	IC100 (SF126) [µM]	IC100 (U118) [µM]	IC50 (cells) [µM]	viability at 10 µM (viable cells in culture; [1]) [%]	viability at 10 µM (viable cells in culture; [2]) [%]	viability at 10 µM (viable cells in culture; [3]) [%]	viability at 10 µM (viable cells in culture; [4]) [%]	viability at 10 µM (viable cells in culture; [5]) [%]	viability at 10 µM (viable cells in culture; [6]) [%]	viability at 10 µM (viable cells in culture; [7]) [%]	viability at 10 µM (viable cells in culture; [8]) [%]	viability at 10 µM (viable cells in culture; [9]) [%]	viability at 10 µM (viable cells in culture; [10]) [%]	viability at 10 µM (viable cells in culture; [11]) [%]	viability at 10 µM (viable cells in culture; [12]) [%]
COc1cc2c(Oc3ccc(NS(=O)(=O)c4c(F)cccc4F)cc3F)ccnc2cc1OCCCN1CCOCC1 [Example 77, 2,6-Difluoro-N-{3-fluoro-4-[6-methoxy-7-(3-morpholin-4-yl-propoxy)-quinolin-4-yloxy]-phenyl}-benzenesulfonamide]	≤ 12.5	> 12.5	≤ 12.5	≤ 12.5	≤ 5	21 to 40	0 to 20	41 to 60	0 to 20	21 to 40	41 to 60	0 to 20	21 to 40	41 to 60	> 60	0 to 20	21 to 40
COc1cc2c(Oc3ccc(NS(=O)(=O)c4cc(F)ccc4F)cc3F)ccnc2cc1OCCCN1CCN(C)CC1 [Example 12, 2,5-Difluoro-N-(3-fluoro-4-{6-methoxy-7-[3-(4-methyl-piperazin-1-yl)-propoxy]-quinolin-4-yloxy}-phenyl)-benzenesulfonamide]	≤ 12.5	≤ 12.5	≤ 12.5	≤ 12.5	≤ 5	21 to 40	21 to 40	21 to 40	0 to 20	21 to 40	41 to 60	41 to 60	41 to 60	> 60	21 to 40	21 to 40	0 to 20
COc1cc2c(Oc3ccc(NS(=O)(=O)c4ccccc4C(F)(F)F)cc3F)ccnc2cc1OCCCN1CCCCC1C (centres unmarked) [Example 99, N-(3-Fluoro-4-{6-methoxy-7-[3-(2-methyl-piperidin-1-yl)-propoxy]-quinolin-4-yloxy}-phenyl)-2-trifluoromethyl-benzenesulfonamide]	≤ 12.5	> 12.5	≤ 12.5	≤ 12.5		> 60	0 to 20	21 to 40	0 to 20	21 to 40	41 to 60	21 to 40	21 to 40	21 to 40	41 to 60	0 to 20	21 to 40
COc1cc2c(Oc3ccc(NS(=O)(=O)c4cc(F)ccc4F)cc3F)ccnc2cc1OCCCN1CCCCC1 [Example 1, 2,5-Difluoro-N-{3-fluoro-4-[6-methoxy-7-(3-piperidin-1-yl-propoxy)-quinolin-4-yloxy]-phenyl}-benzenesulfonamide]	≤ 12.5	≤ 12.5	≤ 12.5	≤ 12.5		0 to 20	0 to 20	21 to 40	0 to 20	41 to 60	41 to 60	21 to 40	21 to 40	> 60	21 to 40	0 to 20	0 to 20
COc1cc2c(Oc3ccc(NS(=O)(=O)c4c(Cl)cccc4Cl)cc3F)ccnc2cc1OCCN1CCOCC1 [Example 104, 2,6-Dichloro-N-{3-fluoro-4-[6-methoxy-7-(2-morpholin-4-yl-ethoxy)-quinolin-4-yloxy]-phenyl}-benzenesulfonamide]	≤ 12.5	> 12.5	> 12.5	> 12.5													
COc1cc2c(Oc3c(Cl)cc(NS(=O)(=O)c4ccccc4C(F)(F)F)cc3Cl)ccnc2cc1OCCCN1CCC(C)CC1 [Example 210, N-(3,5-Dichloro-4-{6-methoxy-7-[3-(4-methyl-piperidin-1-yl)-propoxy]-quinolin-4-yloxy}-phenyl)-2-trifluoromethyl-benzenesulfonamide]	≤ 12.5	> 12.5	≤ 12.5	≤ 12.5													
COc1cc2c(Oc3ccc(NS(=O)(=O)c4ccccc4C(F)(F)F)cc3F)ccnc2cc1OCCCN(C)C [Example 100, N-{4-[7-(3-Dimethylamino-propoxy)-6-methoxy-quinolin-4-yloxy]-3-fluoro-phenyl}-2-trifluoromethyl-benzenesulfonamide]	≤ 12.5	> 12.5	≤ 12.5	≤ 12.5		0 to 20	0 to 20	21 to 40	0 to 20	21 to 40	21 to 40	41 to 60	41 to 60	> 60	21 to 40	0 to 20	0 to 20
COC(=O)c1sccc1S(=O)(=O)Nc1ccc(Oc2ccnc3cc(OCCCN(C)C)c(OC)cc23)c(F)c1 [Example 184, 3-{4-[7-(3-Dimethylamino-propoxy)-6-methoxy-quinolin-4-yloxy]-3-fluoro-phenylsulfamoyl}-thiophene-2-carboxylic acid methyl ester]	≤ 12.5	> 12.5	≤ 12.5	≤ 12.5													
COc1cc2c(Oc3ccc(NS(=O)(=O)c4ccc(F)c(F)c4F)cc3F)ccnc2cc1OCCCN1CCCC(C)C1 (centres unmarked) [Example 49, 2,3,4-Trifluoro-N-(3-fluoro-4-{6-methoxy-7-[3-(3-methyl-piperidin-1-yl)-propoxy]-quinolin-4-yloxy}-phenyl)-benzenesulfonamide]	≤ 12.5	> 12.5	> 12.5	> 12.5													
COc1cc2c(Oc3ccc(NS(=O)(=O)c4ccccc4C(F)(F)F)cc3F)ccnc2cc1OCCCN1CCN(C)CC1 [Example 24, N-(3-Fluoro-4-{6-methoxy-7-[3-(4-methyl-piperazin-1-yl)-propoxy]-quinolin-4-yloxy}-phenyl)-2-trifluoromethyl-benzenesulfonamide]		≤ 12.5	≤ 12.5	≤ 12.5	≤ 5												
COc1cc2c(Oc3ccc(NS(=O)(=O)c4c(Cl)cccc4Cl)cc3Cl)ccnc2cc1OCCCN1CCN(C)CC1 [Example 119, 2,6-Dichloro-N-(3-chloro-4-{6-methoxy-7-[3-(4-methyl-piperazin-1-yl)-propoxy]-quinolin-4-yloxy}-phenyl)-benzenesulfonamide]	≤ 12.5	≤ 12.5	≤ 12.5	≤ 12.5													
COc1cc2c(Oc3ccc(NS(=O)(=O)c4ccccc4OC(F)(F)F)cc3F)ccnc2cc1OCCCN1CCCC(C)C1 (centres unmarked) [Example 45, N-(3-Fluoro-4-{6-methoxy-7-[3-(3-methyl-piperidin-1-yl)-propoxy]-quinolin-4-yloxy}-phenyl)-2-trifluoromethoxy-benzenesulfonamide]	≤ 12.5	> 12.5	≤ 12.5	≤ 12.5													
